This passage reports IC50 results from patent US20250161281A1, “EMOPAMIL-BINDING PROTEIN INHIBITORS AND USES THEREOF” (BIOGEN MA INC., priority 2022, published 2025).

T1 sequence (Q15125 whole entry): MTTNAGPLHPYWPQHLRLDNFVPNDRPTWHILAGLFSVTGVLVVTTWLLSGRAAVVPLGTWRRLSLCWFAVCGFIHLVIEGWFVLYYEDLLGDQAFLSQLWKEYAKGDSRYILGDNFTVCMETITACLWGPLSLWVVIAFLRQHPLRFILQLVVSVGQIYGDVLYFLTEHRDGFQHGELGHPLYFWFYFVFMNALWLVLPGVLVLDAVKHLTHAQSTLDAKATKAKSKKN

This test concerns the target T1, EBP (Homo sapiens, UniProt Q15125).
T1 construct: HEK293T cells were utilized as the source of EBP enzyme; endogenous in cells; host or cells: HEK293T
Description: EBP Functional Assay (EBP immunoaffinity LC-MS assay). Particulars: HEK293T cells as source of EBP enzyme; 30 min with inhibitor, then zymosterol-d5, 37° C. for 4 h; percent conversion by LC-APCI MRM MS. Type of test: biochemical. How it is done: The EBP immunoaffinity (IA) LC-MS assay measures the potency of small molecule inhibitors of EBP by quantifying their concentration-dependent changes in the enzyme's substrate and product using liquid chromatography atmospheric pressure chemical ionization multiple reaction monitoring mass spectrometry (LC-APCI MRM MS). HEK293T cells were utilized as the source of EBP enzyme. The enzyme was incubated with the small molecule inhibitors at variable concentrations for 30 min. Deuterated form of EBP substrate, zymosterol-d5 (Avanti Polar Lipids, Cat #700068P-1 mg), was then added and the plate was incubated at 37° C. for 4 h. Finally, the sterol isomers were extracted and injected to LC-APCI MRM MS. MRM transition used for the quantification for both zymosterol and dihydrolathosterol (substrate and product of EBP enzymatic reaction, respectively) is 372.3-203.2, CE 30 and DP 80 in positive ion mode. Percent conversion of the zymosterol-d5 to dehydrolathosterol-d5 was used to derive IC50 curves. Tasin-1 (1′-[(4-Methoxyphenyl)sulfonyl]-4-methyl-1,4′-bipiperidine, CAS 792927-06-1) was used as the reference small molecule inhibitor. Percent conversion versus the compound concentration data were fit to the following 4-parameter logistic model to generate IC50 curves: […]
Broadly, the IC50 is the concentration that gives 50% inhibition. A low value points to inhibition by little substance. Take `Cc1cc(S(=O)(=O)N2[C@@H]3CC[C@H]2C[C@H](CN2CCOCC2)C3)n(C)n1` [Example 36, 4-(((1R,3s,5S)-8-((1,3-Dimethyl-1H-pyrazol-5-yl)sulfonyl)-8-azabicyclo[3.2.1]octan-3-yl)methyl)morpholine]: the half-inhibitory concentration (IC50) was below 50 nM.

`COC(C)C(C)NC1CC2CCC(C1)N2S(=O)(=O)c1ccc(OC(F)F)cc1` (stereo not shown) [Example 55, 8-((4-(Difluoromethoxy)phenyl)sulfonyl)-N-(3-methoxybutan-2-yl)-8-azabicyclo[3.2.1]octan-3-amine]: the IC50 is below 50 nM.

`CC1CCN([C@@H]2C[C@H]3CC[C@@H](C2)N3S(=O)(=O)c2c3c(nn2C)CCOC3)CC1` [Example 9, 2-Methyl-3-(((1R,3s,5S)-3-(4-methylpiperidin-1-yl)-8-azabicyclo[3.2.1]octan-8-yl)sulfonyl)-2,4,6,7-tetrahydropyrano[4,3-c]pyrazole] showed an IC50 below 50 nM.

Compound `O=S(=O)(c1ccc(OC(F)F)cc1)N1[C@@H]2CC[C@H]1C[C@@H](NCC1CCOCC1)C2` [Example 32, (1R,3r,5S)-8-((4-(Difluoromethoxy)phenyl)sulfonyl)-N-((tetrahydro-2H-pyran-4-yl)methyl)-8-azabicyclo[3.2.1]octan-3-amine] returned an IC50 below 50 nM.

In the case of `CC1CCN([C@@H]2C[C@H]3CC[C@@H](C2)N3S(=O)(=O)c2csc(C(F)(F)F)n2)CC1` [Example 42, 4-(((1R,3s,5S)-3-(4-Methylpiperidin-1-yl)-8-azabicyclo[3.2.1]octan-8-yl)sulfonyl)-2-(trifluoromethyl)thiazole], the half-maximal inhibitory concentration (IC50) lay in the range of 150 to 2000 nM.

In turn, `CC1CCN([C@@H]2C[C@H]3CC[C@@H](C2)N3S(=O)(=O)c2cnc(C3CCOCC3)o2)CC1` [Example 6, 5-(((1R,3s,5S)-3-(4-Methylpiperidin-1-yl)-8-azabicyclo[3.2.1]octan-8-yl)sulfonyl)-2-(tetrahydro-2H-pyran-4-yl)oxazole] came in with a concentration for half-maximal inhibition (IC50) below 50 nM.

On to `Cc1nc(C(F)(F)F)ccc1S(=O)(=O)N1[C@@H]2CC[C@H]1C[C@H](NC1CC3(COC3)C1)C2` (single isomer, unassigned) [Example 68], for which the IC50 is below 50 nM.

In turn, `Cc1cnn(C)c1S(=O)(=O)N1[C@@H]2CC[C@H]1C[C@H](N1CCC(C)CC1)C2` [Example 12, (1R,3s,5S)-8-((1,4-Dimethyl-1H-pyrazol-5-yl)sulfonyl)-3-(4-methylpiperidin-1-yl)-8-azabicyclo[3.2.1]octane] came in with an IC50 below 50 nM.

As for `CC1CCN([C@@H]2C[C@H]3CC[C@@H](C2)N3S(=O)(=O)c2ccc(OC(F)F)cc2)CC1` [Example 21, (1R,3s,5S)-8-((4-(difluoromethoxy)phenyl)sulfonyl)-3-(4-methylpiperidin-1-yl)-8-azabicyclo[3.2.1]octane], the half-maximal inhibitory concentration (IC50) is below 50 nM.

In the case of `O=S(=O)(c1ccc(OC(F)F)cc1)N1C2CCC1CC(NC[C@H]1C[C@H]1CO)C2` (mixture of isomers) [Example 56, rac-((1R,2S)-2-(((8-((4-(Difluoromethoxy)phenyl)sulfonyl)-8-azabicyclo[3.2.1]octan-3-yl)amino)methyl)cyclopropyl)methanol], the IC50 lay in the range of 150 to 2000 nM.

The compound `CC(O)CCN[C@H]1C[C@H]2CC[C@@H](C1)N2S(=O)(=O)c1ccc(OC(F)F)cc1` (mixture of isomers) [Example 59, rac-4-(((1R,3r,5S)-8-((4-(difluoromethoxy)phenyl)sulfonyl)-8-azabicyclo[3.2.1]octan-3-yl)amino)butan-2-ol] showed a 50% inhibitory concentration (IC50) of 50 to 150 nM.

For `Cc1noc(C)c1S(=O)(=O)N1[C@@H]2CC[C@H]1C[C@H](CN1CCOCC1)C2` [Example 38, 4-(((1R,3s,5S)-8-((3,5-Dimethylisoxazol-4-yl)sulfonyl)-8-azabicyclo[3.2.1]octan-3-yl)methyl)morpholine], the half-maximal inhibitory concentration (IC50) is below 50 nM.

In turn, `CC1CCN([C@H]2C[C@H]3CC[C@@H](C2)N3S(=O)(=O)c2cnc(C3CCOCC3)o2)CC1` [Example 2, 5-(((1R,3r,5S)-3-(4-Methylpiperidin-1-yl)-8-azabicyclo[3.2.1]octan-8-yl)sulfonyl)-2-(tetrahydro-2H-pyran-4-yl)oxazole] registered a half-inhibitory concentration (IC50) below 50 nM.

Regarding `CC(C)(O)CN[C@H]1C[C@H]2CC[C@@H](C1)N2S(=O)(=O)c1ccc(OC(F)F)cc1` [Example 77, 1-(((1R,3r,5S)-8-((4-(Difluoromethoxy)phenyl)sulfonyl)-8-azabicyclo[3.2.1]octan-3-yl)amino)-2-methylpropan-2-ol], the IC50 fell in the range of 50 to 150 nM.

Compound `Cc1nc(C(F)(F)F)ccc1S(=O)(=O)N1[C@@H]2CC[C@H]1C[C@@H](NCC1CCOCC1)C2` (single isomer, unassigned) [Example 25] had a half-inhibitory concentration (IC50) below 50 nM.

Compound `O=S(=O)(c1ccc(OC(F)F)cc1)N1[C@@H]2CC[C@H]1C[C@](O)(CN1CCOCC1)C2` [Example 33, (1R,3r,5S)-8-((4-(Difluoromethoxy)phenyl)sulfonyl)-3-(morpholinomethyl)-8-azabicyclo[3.2.1]octan-3-ol] registered a 50% inhibitory concentration (IC50) below 50 nM.

`COC1CCN(C2CC3CCC(C2)N3S(=O)(=O)c2ccc(OC(F)F)cc2)C1` (stereo not shown) [Example 50, 8-((4-(Difluoromethoxy)phenyl)sulfonyl)-3-(3-methoxypyrrolidin-1-yl)-8-azabicyclo[3.2.1]octane] showed an IC50 of 50 to 150 nM.

For the compound `Cc1nn(C)c2ncc(S(=O)(=O)N3[C@@H]4CC[C@H]3C[C@H](N3CCC(C)CC3)C4)cc12` [Example 45, 1,3-Dimethyl-5-(((1R,3s,5S)-3-(4-methylpiperidin-1-yl)-8-azabicyclo[3.2.1]octan-8-yl)sulfonyl)-1H-pyrazolo[3,4-b]pyridine], the IC50 fell in the range of 150 to 2000 nM.

On to `O=S(=O)(c1ccc(OC(F)F)cc1)N1C2CCC1CC(N1C3CCCC1CC(F)(F)C3)C2` (stereo not shown) [Example 16, 9-(8-((4-(Difluoromethoxy)phenyl)sulfonyl)-8-azabicyclo[3.2.1]octan-3-yl)-3,3-difluoro-9-azabicyclo[3.3.1]nonane], for which the half-maximal inhibitory concentration (IC50) was below 50 nM.

Compound `Cc1cnc(S(=O)(=O)N2[C@@H]3CC[C@H]2C[C@H](N2CCC(C)CC2)C3)c(C)c1` [Example 46, (1R,3s,5S)-8-((3,5-Dimethylpyridin-2-yl)sulfonyl)-3-(4-methylpiperidin-1-yl)-8-azabicyclo[3.2.1]octane] came in with a half-maximal inhibitory concentration (IC50) of 150 to 2000 nM.

In turn, `COCCC1CN(C2CC3CCC(C2)N3S(=O)(=O)c2ccc(OC(F)F)cc2)C1` (stereo not shown) [Example 54, 8-((4-(Difluoromethoxy)phenyl)sulfonyl)-3-(3-(2-methoxyethyl)azetidin-1-yl)-8-azabicyclo[3.2.1]octane] registered an IC50 of 150 to 2000 nM.

As for `Cc1cc(S(=O)(=O)N2[C@@H]3CC[C@H]2C[C@@H](CN2CCOCC2)C3)n(C)n1` [Example 37, 4-(((1R,3r,5S)-8-((1,3-Dimethyl-1H-pyrazol-5-yl)sulfonyl)-8-azabicyclo[3.2.1]octan-3-yl)methyl)morpholine], the half-maximal inhibitory concentration (IC50) is below 50 nM.

`O=S(=O)(c1ccc(OC(F)F)cc1)N1[C@@H]2CC[C@H]1C[C@@](O)(CN1CCOCC1)C2` [Example 34, (1R,3s,5S)-8-((4-(Difluoromethoxy)phenyl)sulfonyl)-3-(morpholinomethyl)-8-azabicyclo[3.2.1]octan-3-ol]: the concentration for half-maximal inhibition (IC50) is 50 to 150 nM.

For `O=S(=O)(c1ccc(OC(F)F)cc1)N1C2CCC1CC(N1C3CCCC1CC3)C2` (stereo not shown) [Example 53, 8-((4-(Difluoromethoxy)phenyl)sulfonyl)-8,8′-diaza-3,8′-bi(bicyclo[3.2.1]octane)], the IC50 fell in the range of 50 to 150 nM.

Regarding `O=S(=O)(c1ccc(OC(F)F)cc1)N1C2CCC1CC(N[C@@H]1CCOC1)C2` (stereo partly drawn) [Example 70, 8-((4-(Difluoromethoxy)phenyl)sulfonyl)-N—((R)-tetrahydrofuran-3-yl)-8-azabicyclo[3.2.1]octan-3-amine], the concentration for half-maximal inhibition (IC50) was 50 to 150 nM.

As for `CC1CCN([C@H]2C[C@H]3CC[C@@H](C2)N3S(=O)(=O)c2ccc(OC(F)F)cc2)CC1` [Example 20, (1R,3r,5S)-8-((4-(difluoromethoxy)phenyl)sulfonyl)-3-(4-methylpiperidin-1-yl)-8-azabicyclo[3.2.1]octane], the IC50 is below 50 nM.

The compound `Cc1nc(C(F)(F)F)ccc1S(=O)(=O)N1[C@@H]2CC[C@H]1C[C@H](NCC1CCOCC1)C2` (single isomer, unassigned) [Example 24] yielded an IC50 below 50 nM.

`CC1(CNC2C[C@H]3CC[C@@H](C2)N3S(=O)(=O)c2ccc(OC(F)F)cc2)COC1` (mixture of isomers) [Example 15, 8-((4-(Difluoromethoxy)phenyl)sulfonyl)-N-((3-methyloxetan-3-yl)methyl)-8-azabicyclo[3.2.1]octan-3-amine]: the IC50 was below 50 nM.

Compound `Cc1nc(C(F)(F)F)ccc1S(=O)(=O)N1[C@@H]2CC[C@H]1C[C@H](NCC1(C)COC1)C2` (single isomer, unassigned) [Example 26] came in with an IC50 below 50 nM.

Compound `Cc1ccnc(-n2cc(S(=O)(=O)N3[C@@H]4CC[C@H]3C[C@@H](N3CCC(C)CC3)C4)cn2)c1` [Example 40, (1R,3r,5S)-3-(4-methylpiperidin-1-yl)-8-((1-(4-methylpyridin-2-yl)-1H-pyrazol-4-yl)sulfonyl)-8-azabicyclo[3.2.1]octane] had an IC50 of 150 to 2000 nM.

In the case of `Cc1nc(C(F)(F)F)ccc1S(=O)(=O)N1[C@@H]2CC[C@H]1C[C@@H](NCC1(C)COC1)C2` (single isomer, unassigned) [Example 27], the IC50 is below 50 nM.
